The source of these data is the Kinase Knowledgebase extract (Sharma et al. 2016).

The target of assay [1] is EGFR (Human), P00533 [T790M/L858R].
For assay [2] the target is unchanged. Particulars: nci-h1975.
The target is the same in assay [3]. As to conditions: nci-h1975. This is another data set of the same source.

Chain of EGFR (Human), P00533 [T790M/L858R] (P00533 whole entry T790M/L858R, looked up): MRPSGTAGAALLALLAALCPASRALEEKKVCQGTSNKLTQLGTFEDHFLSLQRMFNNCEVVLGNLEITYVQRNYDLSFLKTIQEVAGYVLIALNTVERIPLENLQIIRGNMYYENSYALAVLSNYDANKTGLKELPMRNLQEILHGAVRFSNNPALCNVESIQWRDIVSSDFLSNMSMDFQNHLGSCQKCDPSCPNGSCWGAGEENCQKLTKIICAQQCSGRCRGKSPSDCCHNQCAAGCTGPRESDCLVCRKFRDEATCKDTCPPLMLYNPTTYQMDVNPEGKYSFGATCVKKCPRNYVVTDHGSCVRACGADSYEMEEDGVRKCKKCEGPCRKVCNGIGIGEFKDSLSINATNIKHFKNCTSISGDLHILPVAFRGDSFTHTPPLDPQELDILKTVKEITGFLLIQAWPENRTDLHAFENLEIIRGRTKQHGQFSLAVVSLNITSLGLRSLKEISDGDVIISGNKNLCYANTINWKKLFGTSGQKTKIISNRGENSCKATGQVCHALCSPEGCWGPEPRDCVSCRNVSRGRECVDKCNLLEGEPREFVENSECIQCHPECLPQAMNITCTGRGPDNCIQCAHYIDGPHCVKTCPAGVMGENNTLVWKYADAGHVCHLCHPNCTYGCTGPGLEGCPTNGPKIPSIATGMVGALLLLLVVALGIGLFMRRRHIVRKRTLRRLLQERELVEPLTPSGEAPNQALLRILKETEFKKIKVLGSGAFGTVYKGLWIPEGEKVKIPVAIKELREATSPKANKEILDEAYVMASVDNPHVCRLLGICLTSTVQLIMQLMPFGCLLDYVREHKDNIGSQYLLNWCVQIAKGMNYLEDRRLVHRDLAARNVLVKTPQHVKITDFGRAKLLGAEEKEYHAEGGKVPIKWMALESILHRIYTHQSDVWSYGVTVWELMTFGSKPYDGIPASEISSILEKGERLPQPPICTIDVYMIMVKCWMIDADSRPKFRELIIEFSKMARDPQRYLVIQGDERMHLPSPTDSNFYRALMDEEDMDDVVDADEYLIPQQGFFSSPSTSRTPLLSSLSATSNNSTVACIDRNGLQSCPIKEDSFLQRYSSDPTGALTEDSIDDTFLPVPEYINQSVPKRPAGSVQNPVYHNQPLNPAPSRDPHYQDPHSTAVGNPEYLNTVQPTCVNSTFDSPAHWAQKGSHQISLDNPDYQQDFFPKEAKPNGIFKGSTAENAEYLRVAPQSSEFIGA

The term Ki denotes a measure of affinity in units of concentration, obtained from inhibition or displacement. Read a low Ki as a stronger hold on the target. A word on the EC50: it is the concentration that produces a half-maximal response. A high value points to weaker potency. Take `CC(C)n1nc(N2CCC(C(N)=O)C2)c2cnc(Nc3ccnc(-c4cnn(S(=O)(=O)C5CC5)c4)n3)cc21` (stereo unspecified): in assay [1], the Ki is < 0.6 nM. This molecule yielded an EC50 in assay [2] of 608 nM.

`CCC(C)n1nc(N2CC[C@H](O)C2=O)c2cnc(Nc3ccnc(N4CC[C@@H](O)[C@@H](F)C4)n3)cc21` (stereo partly specified): the EC50 in assay [2] and in assay [3] was > 10000 nM in each case.

As for `CC(C)n1nc(NC2CNC(=O)C2)c2cnc(Nc3ccnc(N4CCC(C)(O)CC4)n3)cc21` (stereo unspecified), the EC50 in assay [2] and in assay [3] was > 10000 nM in each case.

Regarding `CC1COCC(C)N1c1nn(C(C)C)c2cc(Nc3ccnc(-c4cnn(S(=O)(=O)C5CC5)c4)n3)ncc12` (stereo unspecified), the EC50 in assay [2] and in assay [3] was > 10000 nM in each case.

On to `COCC1CN(c2nn(C(C)C)c3cc(Nc4ccnc(-c5cnn(S(=O)(=O)C6CC6)c5)n4)ncc23)C1`, for which the Ki in assay [1] was determined as 1 nM. Moreover, the figures for the EC50 in assay [2] and in assay [3] were 211 nM and 20.9 nM, respectively.

`CC(C)n1nc(F)c2cnc(Nc3ccnc(-c4cnn(S(=O)(=O)C5CC5)c4)n3)cc21`: the EC50 in assay [2] and in assay [3] was > 10000 nM in each case.

`CC(C)n1nc(N2C[C@H](O)[C@@H](O)C2)c2cnc(Nc3ccnc(N4CCC(C)(O)CC4)n3)cc21`: the EC50 in assay [2] and in assay [3] was > 10000 nM in each case.

`CCS(=O)(=O)n1cc(-c2nccc(Nc3cc4c(cn3)c(N3CC(C(=O)N(C)C)C3)nn4C(C)C)n2)cn1` registered a 50% effective concentration (EC50) in assay [2] of 236 nM.
